Values of other authors, collected in patent US20080242855A1, “Process for Producing Flavone C Glycoside Derivatives” (priority 2004, published 2008).

Key:
[1] = test system: auricular edema induced by 2,4-dinitrofluorobenzen (DNFB); conditions: reported in Japanese Patent Laid-Open No. 2004-035474
peritoneal mast cells = conditions: reported in Japanese Patent Laid-Open No. 2004-035474

Row | Compound | inhibitory effect on the formation of auricular edema induced by 2,4-dinitrofluorobenzen (DNFB) [1] | inhibitory effect on histamine release from peritoneal mast cells (peritoneal mast cells)
1 | O=c1cc(-c2ccc(O)cc2)oc2cc3c(c(O)c12)[C@@H]1O[C@H](CO)[C@@H](O)[C@H](O)[C@@H]1O3 [formula (1)] | inhibitory effect | inhibitory effect
2 | O=c1cc(-c2ccc(O)cc2)oc2c3c(cc(O)c12)O[C@H]1[C@@H](O)[C@H](O)[C@@H](CO)O[C@@H]31 [formula (4)] | inhibitory effect | inhibitory effect
